Among the data in patent publication US9758537B2 (Achillion Pharmaceuticals, Inc., priority 2014, dated 2017) are IC50 values, retold here.

Where only a bound is given, the exact number is not on record here.

The experiment addresses Human factor D (Homo sapiens (Human), UniProt P00746). The experiment is described as follows: Human Factor D Assay. It counts as biochemical. Particulars: human factor D 80 nM, substrate Z-L-Lys-SBzl, DTNB, OD405. How it is done: Human factor D (purified from human serum, Complement Technology, Inc.) at 80 nM final concentration is incubated with test compound at various concentrations for 5 minutes at room temperature in 50 mM Tris, 1M NaCl, pH 7.5. A synthetic substrate Z-L-Lys-SBzl and DTNB (Ellman's reagent) are added to final concentrations of 10 μM each. The increase in color is recorded at OD405 nm in a microplate in kinetic mode over 30 minutes with 30 second time points in a […]. IC50 values are calculated by non-linear regression from the percentage of inhibition of complement factor D activity as a function of test compound concentration.

Sequence of Human factor D (P00746 26-253): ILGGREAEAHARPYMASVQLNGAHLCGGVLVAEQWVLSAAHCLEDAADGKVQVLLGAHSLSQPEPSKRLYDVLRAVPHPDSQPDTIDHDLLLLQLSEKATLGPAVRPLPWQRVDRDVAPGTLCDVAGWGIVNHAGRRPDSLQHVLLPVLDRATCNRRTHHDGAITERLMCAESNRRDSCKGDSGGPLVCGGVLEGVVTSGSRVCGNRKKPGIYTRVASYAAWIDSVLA

A word on the IC50: it is the midpoint of a concentration-inhibition curve. A higher IC50 goes with weaker potency. With `C=C(F)c1nn(CC(=O)N2C[C@H](F)C[C@H]2C(=O)NCc2cccc(Cl)c2F)c2cnccc12` [Compound 74, (2S,4R)-N-(3-chloro-2-fluorobenzyl)-4-fluoro-1-(2-(3-(1-fluorovinyl)-1H-pyrazolo[3,4-c]pyridin-1-yl)acetyl)pyrrolidine-2-carboxamide], the 50% inhibitory concentration (IC50) was < 1000 nM.
Next, `O=C(NCc1cccc(Cl)c1F)[C@@H]1C[C@@H](F)CN1C(=O)Cn1nc(-c2cnc[nH]2)c2ccncc21` [Compound 75, (2S,4R)-1-(2-(3-(1H-imidazol-5-yl)-1H-pyrazolo[3,4-c]pyridin-1-yl)acetyl)-N-(3-chloro-2-fluorobenzyl)-4-fluoropyrrolidine-2-carboxamide]: < 1000 nM; `NS(=O)(=O)c1cn(CC(=O)N2C[C@H](F)C[C@H]2C(=O)NCc2cccc(Cl)c2F)c2ccccc12` [Compound 76, (2S,4R)-N-(3-chloro-2-fluorobenzyl)-4-fluoro-1-(2-(3-sulfamoyl-1H-indol-1-yl)acetyl)pyrrolidine-2-carboxamide]: < 1000 nM; `NC(=O)c1nn(CC(=O)N2[C@@H]3C[C@@H]3C[C@H]2C(=O)Nc2cccc(-c3ccccc3Cl)c2F)cc1Br` [Compound 77, (1R,3S,5R)-2-(2-(4-bromo-3-carbamoyl-1H-pyrazol-1-yl)acetyl)-N-(2′-chloro-2-fluorobiphenyl-3-yl)-2-azabicyclo[3.1.0]hexane-3-carboxamide]: < 1000 nM.
Take `CC(=O)c1cn(CC(=O)N2C[C@H](F)C[C@H]2C(=O)Nc2cccc(-c3ccccc3Cl)c2F)c2c(C#N)cccc12` [Compound 79, (2S,4R)-1-(2-(3-acetyl-7-cyano-1H-indol-1-yl)acetyl)-N-(2′-chloro-2-fluorobiphenyl-3-yl)-4-fluoropyrrolidine-2-carboxamide]: the IC50 was < 1000 nM.
In the case of `NC(=O)c1nn(CC(=O)N2C[C@H](F)C[C@H]2C(=O)Nc2cccc(-c3cc(F)c(F)cc3Cl)c2F)c2ccccc12` [Compound 80, 1-(2-((2S,4R)-2-(2′-chloro-2,4′,5′-trifluorobiphenyl-3-ylcarbamoyl)-4-fluoropyrrolidin-1-yl)-2-oxoethyl)-1H-indazole-3-carboxamide], the IC50 was < 1000 nM.
Next, `CC(=O)c1cn(CC(=O)N2C[C@H](F)C[C@H]2C(=O)Nc2cccc(Br)n2)c2ccc(C3(N4C(=O)c5ccccc5C4=O)CC3)cc12` [Compound 81, (2S,4R)-1-(2-(3-acetyl-5-(1-(1,3-dioxoisoindolin-2-yl)cyclopropyl)-1H-indol-1-yl)acetyl)-N-(6-bromopyridin-2-yl)-4-fluoropyrrolidine-2-carboxamide]: < 1000 nM.
Next, `CC(=O)c1cn(CC(=O)N2C[C@H](F)C[C@H]2C(=O)Nc2cccc(-c3cc(F)c(F)cc3Cl)c2F)c2ccccc12` [Compound 82, (2S,4R)-1-(2-(3-acetyl-1H-indol-1-yl)acetyl)-N-(2′-chloro-2,4′,5′-trifluorobiphenyl-3-yl)-4-fluoropyrrolidine-2-carboxamide]: < 1000 nM.
Then `NC(=O)c1nn(CC(=O)N2C[C@H](F)C[C@H]2C(=O)Nc2cccc(-c3cc(F)c(F)cc3Cl)c2F)c2cnccc12` [Compound 83, 1-(2-((2S,4R)-2-(2′-chloro-2,4′,5′-trifluorobiphenyl-3-ylcarbamoyl)-4-fluoropyrrolidin-1-yl)-2-oxoethyl)-1H-pyrazolo[3,4-c]pyridine-3-carboxamide], with < 1000 nM; and `CC(=O)n1cc(CC(=O)N2C[C@H](F)C[C@H]2C(=O)Nc2cccc(-c3ccccc3Cl)c2F)c2ccsc21` [Compound 90, (2S,4R)-1-(2-(6-acetyl-6H-thieno[2,3-b]pyrrol-4-yl)acetyl)-N-(2′-chloro-2-fluorobiphenyl-3-yl)-4-fluoropyrrolidine-2-carboxamide], with < 1000 nM.
As for `CC(=O)Nc1cccc2c1c(C(C)=O)cn2CC(=O)N1C[C@H](F)C[C@H]1C(=O)Nc1cccc(-c2ccccc2Cl)c1F` [Compound 91, (2S,4R)-1-(2-(4-acetamido-3-acetyl-1H-indol-1-yl)acetyl)-N-(2′-chloro-2-fluorobiphenyl-3-yl)-4-fluoropyrrolidine-2-carboxamide], the concentration for half-maximal inhibition (IC50) was > 10000 nM.
Then `NC(=O)c1nn(CC(=O)N2C[C@H](F)C[C@H]2C(=O)Nc2cccc(-c3ccc(F)c(F)c3Cl)c2F)c2ccccc12` [Compound 92, 1-(2-((2S,4R)-2-(2′-chloro-2,3′,4′-trifluorobiphenyl-3-ylcarbamoyl)-4-fluoropyrrolidin-1-yl)-2-oxoethyl)-1H-indazole-3-carboxamide], with < 1000 nM; and `CC(=O)c1cn(CC(=O)N2C[C@H](F)C[C@H]2C(=O)Nc2cccc(-c3ccc(F)c(F)c3Cl)c2F)c2ccccc12` [Compound 93, (2S,4R)-1-(2-(3-acetyl-1H-indol-1-yl)acetyl)-N-(2′-chloro-2,3′,4′-trifluorobiphenyl-3-yl)-4-fluoropyrrolidine-2-carboxamide], with < 1000 nM.
As to `NC(=O)c1nn(CC(=O)N2C[C@H](F)C[C@H]2C(=O)Nc2cccc(-c3cc(F)cc(F)c3Cl)c2F)c2ccccc12` [Compound 94, 1-(2-((2S,4R)-2-(2′-chloro-2,3′,5′-trifluorobiphenyl-3-ylcarbamoyl)-4-fluoropyrrolidin-1-yl)-2-oxoethyl)-1H-indazole-3-carboxamide], the IC50 was < 1000 nM.
Then `CC(=O)c1cn(CC(=O)N2C[C@H](F)C[C@H]2C(=O)Nc2cccc(-c3cc(F)cc(F)c3Cl)c2F)c2ccccc12` [Compound 95, (2S,4R)-1-(2-(3-acetyl-1H-indol-1-yl)acetyl)-N-(2′-chloro-2,3′,5′-trifluorobiphenyl-3-yl)-4-fluoropyrrolidine-2-carboxamide], with < 1000 nM; and `CC(=O)c1cn(CC(=O)N2C[C@H](F)C[C@H]2C(=O)Nc2cccc(-c3ccccc3Cl)c2F)c2cccc(C#N)c12` [Compound 97, (2S,4R)-1-(2-(3-acetyl-4-cyano-1H-indol-1-yl)acetyl)-N-(2′-chloro-2-fluorobiphenyl-3-yl)-4-fluoropyrrolidine-2-carboxamide], with < 1000 nM.
Next, `NC(=O)c1cn(CC(=O)N2C[C@H](F)C[C@H]2C(=O)Nc2cccc(-c3ccccc3Cl)c2F)c2sccc12` [Compound 98, 6-(2-((2S,4R)-2-(2′-chloro-2-fluorobiphenyl-3-ylcarbamoyl)-4-fluoropyrrolidin-1-yl)-2-oxoethyl)-6H-thieno[2,3-b]pyrrole-4-carboxamide]: < 1000 nM; `NC(=O)c1nn(CC(=O)N2C[C@H](F)C[C@H]2C(=O)Nc2cccc(-c3ccccc3Cl)c2F)c2ccsc12` [Compound 99, 1-(2-((2S,4R)-2-(2′-chloro-2-fluorobiphenyl-3-ylcarbamoyl)-4-fluoropyrrolidin-1-yl)-2-oxoethyl)-1H-thieno[3,2-c]pyrazole-3-carboxamide]: < 1000 nM; `NC(=O)c1nn(CC(=O)N2C[C@H](F)C[C@H]2C(=O)Nc2cccc(-c3c(F)cc(F)cc3Cl)n2)c2cnccc12` [Compound 100, 1-(2-((2S,4R)-2-(6-(2-chloro-4,6-difluorophenyl)pyridin-2-ylcarbamoyl)-4-fluoropyrrolidin-1-yl)-2-oxoethyl)-1H-pyrazolo[3,4-c]pyridine-3-carboxamide]: < 1000 nM.
Next, `NC(=O)c1nn(CC(=O)N2C[C@H](F)C[C@H]2C(=O)Nc2cccc(-c3c(F)cc(F)cc3Cl)c2)c2cnccc12` [Compound 101, 1-(2-((2S,4R)-2-(2′-chloro-4′,6′-difluorobiphenyl-3-ylcarbamoyl)-4-fluoropyrrolidin-1-yl)-2-oxoethyl)-1H-pyrazolo[3,4-c]pyridine-3-carboxamide]: < 1000 nM; `NC(=O)c1nn(CC(=O)N2C[C@H](F)C[C@H]2C(=O)Nc2cccc(-c3ccccc3Cl)c2F)c2c1CCCC2` [Compound 104, 1-(2-((2S,4R)-2-(2′-chloro-2-fluorobiphenyl-3-ylcarbamoyl)-4-fluoropyrrolidin-1-yl)-2-oxoethyl)-4,5,6,7-tetrahydro-1H-indazole-3-carboxamide]: < 1000 nM.
As for `NC(=O)c1nn(CC(=O)N2C[C@H](F)C[C@H]2C(=O)Nc2cccc(Br)n2)c2ccsc12` [Compound 106, 1-(2-((2S,4R)-2-(6-bromopyridin-2-ylcarbamoyl)-4-fluoropyrrolidin-1-yl)-2-oxoethyl)-1H-thieno[3,2-c]pyrazole-3-carboxamide], the IC50 is < 1000 nM.
Regarding `NC(=O)c1nn(CC(=O)N2[C@@H]3C[C@@H]3C[C@H]2C(=O)NCc2cccc(Cl)c2F)c2ccsc12` [Compound 107, 1-(2-((1R,3S,5R)-3-(3-chloro-2-fluorobenzylcarbamoyl)-2-azabicyclo[3.1.0]hexan-2-yl)-2-oxoethyl)-1H-thieno[3,2-c]pyrazole-3-carboxamide], the IC50 was < 1000 nM.
Then `COc1ncc(-c2cn(CC(=O)N3C[C@H](F)C[C@H]3C(=O)Nc3cccc(-c4ccccc4Cl)c3F)nc2C(N)=O)cn1` [Compound 110, 1-(2-((2S,4R)-2-(2′-chloro-2-fluorobiphenyl-3-ylcarbamoyl)-4-fluoropyrrolidin-1-yl)-2-oxoethyl)-4-(2-methoxypyrimidin-5-yl)-1H-pyrazole-3-carboxamide], with > 10000 nM; and `N#Cc1cccc2c(C(N)=O)nn(CC(=O)N3C[C@H](F)C[C@H]3C(=O)Nc3cccc(-c4ccccc4Cl)c3F)c12` [Compound 111, 1-(2-((2S,4R)-2-(2′-chloro-2-fluorobiphenyl-3-ylcarbamoyl)-4-fluoropyrrolidin-1-yl)-2-oxoethyl)-7-cyano-1H-indazole-3-carboxamide], with < 1000 nM; and `CC(=O)c1cn(CC(=O)N2C[C@H](F)C[C@H]2C(=O)Nc2cccc(-c3ccccc3Cl)c2F)c2c(-c3ccc(Cl)nc3)cccc12` [Compound 112, (2S,4R)-1-(2-(3-acetyl-7-(6-chloropyridin-3-yl)-1H-indol-1-yl)acetyl)-N-(2′-chloro-2-fluorobiphenyl-3-yl)-4-fluoropyrrolidine-2-carboxamide], with < 1000 nM.
